Data: patent publication US9562042B2, “α-oxoacyl amino-caprolactam” (Seikagaku Corporation, priority 2013, dated 2017)
pIC50: −log10 of the molar value.

Legend:
cathepsin K = assay: Measurement of cathepsin K inhibitory activity (decomposition of fluorescent substrate Z-Gly-Pro-Arg-MCA); assay type: biochemical
Description: Cathepsin K was prepared as follows. […] Specifically, the decomposition of 20 μM Z-Gly-Pro-Arg-MCA by cathepsin K was measured in 100 mM potassium sodium phosphate, 1 mM EDTA, 8 mM Cysteine, pH 6.0. The reaction was performed at 37° C. for 30 minutes and then quenched by the addition of 2×10^−5 M of calpeptin.

CYP3A4 = CYP3A4 (Homo sapiens, UniProt P08684); assay: Measurement of CYP3A4 inhibitory activity (midazolam 1'-hydroxylation in human hepatic microsomes, DI and MBI); assay type: in vitro ADME; conditions: human hepatic (liver) microsomes, probe midazolam (1'-hydroxylation), inventive compounds (Table 4); for IC50 at 10 min: direct inhibition, midazolam, 37° C. 10 minutes, read-out: CYP3A inhibitory IC50 (μmol/L) DI; for pIC50: mechanism based inhibition, pre-incubated 37° C. 30 minutes before midazolam, read-out: CYP3A inhibitory IC50 (μmol/L) MBI
Sequence of CYP3A4 (P08684 2-503): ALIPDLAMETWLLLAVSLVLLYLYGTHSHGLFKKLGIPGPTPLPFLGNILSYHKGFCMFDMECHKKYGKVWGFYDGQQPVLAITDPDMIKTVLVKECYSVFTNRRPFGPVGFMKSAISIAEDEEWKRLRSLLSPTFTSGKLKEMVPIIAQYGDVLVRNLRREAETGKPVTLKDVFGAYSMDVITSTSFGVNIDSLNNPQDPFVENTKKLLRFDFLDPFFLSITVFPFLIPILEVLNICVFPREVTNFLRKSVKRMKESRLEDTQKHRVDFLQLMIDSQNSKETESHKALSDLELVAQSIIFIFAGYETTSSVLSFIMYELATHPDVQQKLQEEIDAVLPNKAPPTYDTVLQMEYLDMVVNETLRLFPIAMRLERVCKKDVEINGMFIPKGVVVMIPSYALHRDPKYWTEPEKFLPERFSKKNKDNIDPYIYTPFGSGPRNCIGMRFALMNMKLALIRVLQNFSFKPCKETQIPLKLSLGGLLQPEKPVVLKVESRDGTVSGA
Description: The measurement of CYP3A4 inhibitory activity was performed with reference to the method of Newton et al. (Drug Metab. Dispos. 23, 154-158 (1995)) and the method described in JP 2007-236327 A.
A reaction mixture was prepared by mixing the compound of the present invention with midazolam as a typical substrate for CYP3A4 (see Food and Drug Administration (FDA) Guidance for Industry Drug Interaction Studies—Study Design, Data Analysis, Implications for Dosing, and Labeling Recommendations. FDA web site [online], www.fda.gov/downloads/drugs/guidancecomplianceregulatoryinformation/guidances/ucm292362.pdf), coenzyme NADPH-generating system, human hepatic microsomes, and a phosphate buffer. The reaction mixture was incubated at 37° C. for 10 minutes.
The coenzyme NADPH-generating system solution was prepared by mixing the materials shown in Table 1: the 13 mmol/L β-NADP^+ solution, the 33 mmol/L G-6-P solution, the solution of 10 U/mL G6PDH (Y) (manufactured by Oriental Yeast Co., Ltd.), and the 33 mmol/L MgCl2 solution in a ratio of 1:1:0.4:1 (v:v:v:v). […] The final concentrations of the compounds of the present invention and the comparative compounds were set at the levels considered to be necessary for the calculation of the IC50 values based on the results of the measurement performed at an arbitrary concentration in advance.
After the incubation, the reaction was quenched by the addition of an acetonitrile solution to the reaction mixture. The amount of 1′-hydroxymidazolam produced (the metabolite produced from midazolam by CYP3A4) was measured in the quenched sample with a high-performance liquid chromatography tandem mass spectrometer (LC-MS/MS). Each IC50 value for DI (direct inhibition) was determined from the amount of the produced 1′-hydroxymidazolam and the final concentration of the compound of the present invention or the comparative compound in the reaction mixture.
MBI (mechanism based inhibition) was evaluated as follows. After the reaction mixture not containing midazolam (but containing the compound of the present invention or the comparative compound, the coenzyme NADPH-generating system, the human hepatic microsomes, and the phosphate buffer) was pre-incubated at 37° C. for 30 minutes, midazolam was added to the reaction mixture. The reaction mixture was then incubated at 37° C. for 10 minutes. Subsequently, the reaction was quenched by the addition of an acetonitrile solution to the reaction mixture. The amount of 1′-hydroxymidazolam produced was measured in the quenched sample with an LC-MS/MS. As in the case of DI, each IC50 value for MBI was determined from the amount of the produced 1′-hydroxymidazolam and the final concentration of the compound of the present invention or the comparative compound in the reaction mixture.

SMILES | CYP/CatK (cathepsin K) | IC50 at 10 min (CYP3A4) [µmol/L] | pIC50 (CYP3A4)
CC(C)[C@H](NC(=O)C1(NC(=O)N2CCSC2)CCCCC1)C(=O)C(=O)N[C@H]1CCCCNC1=O [Compound 1] | 56555 | 43.5 | 4.35
CC(C)[C@H](NC(=O)C1(NC(=O)N2CCCC2)CCCCC1)C(=O)C(=O)N[C@H]1CCCCNC1=O [Compound 2] | 52214 | 101 | 4.14
CC(C)[C@H](NC(=O)C1(NC(=O)[C@H]2CCCO2)CCCCC1)C(=O)C(=O)N[C@H]1CCCCNC1=O [Compound 3] | 40294 | 208 | 3.86
